Test results taken from US20200061007A1, “CANCER STEM CELL PROLIFERATION INHIBITOR” (NATIONAL INSTITUTE OF ADVANCED INDUSTRIAL SCIENCE AND …, priority 2014, published 2020).

How the values were obtained:
[1] = system: Human Leukemia Cell Line Kasumi-1; experiment: Growth inhibition of Kasumi-1, isobologram; type: cell-based; details: Kasumi-1, RPMI1640 with 20% FBS
Experimental: A human leukemia cell line Kasummi-1, containing cells positive for cancer stem cell markers, was cultured in RPMI1640 medium supplemented with 20% FBS, and the growth inhibitory action by the combination of Am80 and 5-AZ was studied using Isobologram. […] These concentrations were taken as 1.0, and the points corresponding to 1.0 in the two axes were connected to each other via a straight line. In cases where the ratio observed for the combination effect is on the line, the effect is additive, and, in cases where the ratio is below the line, the effect is synergistic.

[2] = system: human breast cancer cell line MCF-7; experiment: Growth inhibition of MCF-7 in vitro; type: cell-based; details: MCF-7, 96 hours of exposure, RPMI1640 with 2% FBS
Experimental: A human breast cancer cell line MCF-7, containing cells positive for cancer stem cell markers, was cultured in RPMI1640 medium supplemented with 2% FBS, and the growth inhibitory action by the combination of Am80 and 5-AZ was studied. The IC50 values of the agents determined by 96 hours of the exposure were 1 μM and 20 μM, respectively. Thus, in order to study the growth inhibitory action, Am80 was used within the concentration range of 0.125 μM to 1 μM with a common ratio of 2, and 5-AZ was used within the concentration range of 2.5 μM to 20 μM with a common ratio of 2. In cases of use of these agents in combination, the growth inhibitory action was studied using these concentrations.

[3] = system: human prostate cancer cell line LNCaP; experiment: Growth inhibition of LNCaP in vitro; type: cell-based; details: 96 hours of exposure, RPMI1640 with 10% FBS
Experimental: A human prostate cancer cell line LNCaP, containing cells positive for cancer stem cell markers, was cultured in RPMI1640 medium supplemented with 10% FBS, and the growth inhibitory action by the combination of Am80 and 5-AZ was studied. […] Thus, in order to study the growth inhibitory action, Am80 was used within the concentration range of 0.125 μM to 1 μM with a common ratio of 2, and 5-AZ was used within the concentration range of 1.56 μM to 12.5 μM with a common ratio of 2. In cases of use of these agents in combination, the growth inhibitory action was studied using these concentrations.

[4] = system: human pancreatic cancer cells MIA-Paca2; experiment: Tumor volume, MIA-Paca2/nude mice; type: in vivo
Experimental: A tumor piece of human pancreatic cancer cells MIA-Paca2 containing cells positive for cancer stem cell markers was subcutaneously transplanted to the dorsal part of each of 6-week-old female BALB/cAJc1-nu nude mice (4 mice/group, 5 mice only for the control group) using a trocar needle. At the time when the tumor volume reached 100 to 200 mm^3, the administration was started. Am80 was orally administered once a day at a dose of 2 mg/kg for 21 continuous days, and DXL was intravenously administered at a dose of 5 mg/kg from Day 1, 3 times at intervals of 4 days. In the combination group, the agents were administered at the same doses as, and by the same administration methods as, those in the cases of administration of each single agent. Measurement of the tumor diameter was carried out until the next day of the completion of the administration (Day 22). Based on the measured values of the longitudinal diameter and the transverse diameter, the tumor volume (mm^3) was determined according to the following formula: longitudinal diameter×transverse diameter^2/2. In the control group, physiological saline was intraperitoneally administered from Day 1, 3 times at intervals of 4 days.

[5] = system: human breast cancer cell line MCF-7; experiment: Tumor volume, MCF-7/nude mice; type: in vivo
Experimental: (§1) A tumor piece of a human breast cancer cell line MCF-7 containing cells positive for cancer stem cell markers was subcutaneously transplanted to the dorsal part of each of 6-week-old female BALB/cAJc1-nu nude mice (5 mice/group) using a trocar needle. At the time when the tumor volume reached 100 to 200 mm^3, the administration was started. Am80 was orally administered once a day at a dose of 1 mg/kg for 21 continuous days, and DXL was intravenously administered at a dose of 3.5 mg/kg from Day 1, 3 times at intervals of 4 days. In the combination group, the agents were administered at the same doses as, and by the same administration methods as, those in the cases of administration of each single agent. Measurement of the tumor diameter was carried out until the next day of the completion of the administration (Day 22). The longitudinal diameter and the transverse diameter of the tumor were measured using a caliper, and the tumor volume (mm^3) was determined according to the following formula: longitudinal diameter×transverse diameter^2/2. In the control group, physiological saline was intraperitoneally administered from Day 1, 3 times at intervals of 4 days.

[6] = system: human prostate cancer cell line LNCaP; experiment: Tumor volume, LNCaP/nude mice; type: in vivo
Experimental: as §1, with “prostate” for “breast”, “LNCaP” for “MCF-7”, “(4” for “(5”, “5” for “3.5”

## Nc1ncn([C@@H]2O[C@H](CO)[C@@H](O)[C@H]2O)c(=O)n1 [5-AZ, Azacytidine]
[1]
  IC50: 8.4 µM
[2]
  IC50: 20 µM
[3]
  IC50: 25 µM

## CC(=O)O[C@@]12CO[C@@H]1C[C@H](O)[C@@]1(C)C(=O)[C@H](O)C3=C(C)[C@@H](OC(=O)[C@H](O)[C@@H](NC(=O)OC(C)(C)C)c4ccccc4)C[C@@](O)([C@@H](OC(=O)c4ccccc4)[C@H]21)C3(C)C [DXL, Docetaxel]
[4]; Am80 2 mg/kg oral daily 21 days, DXL 5 mg/kg i.v. 3 times at intervals of 4 days, Day 1
  tumor volume Day 1: 136.7 mm^3
[4]; Am80 2 mg/kg oral daily, DXL 5 mg/kg i.v., Day 5
  tumor volume Day 5: 151.3 mm^3
[4]; Am80 2 mg/kg oral daily, DXL 5 mg/kg i.v., Day 9
  tumor volume Day 9: 135.7 mm^3
[4]; Am80 2 mg/kg oral daily, DXL 5 mg/kg i.v., Day 13
  tumor volume Day 13: 93.7 mm^3
[4]; Am80 2 mg/kg oral daily, DXL 5 mg/kg i.v., Day 17
  tumor volume Day 17: 76.3 mm^3
[4]; Am80 2 mg/kg oral daily, DXL 5 mg/kg i.v., Day 22
  tumor volume Day 22: 77.3 mm^3
[5]; Am80 1 mg/kg oral daily 21 days, DXL 3.5 mg/kg i.v. 3 times at intervals of 4 days, Day 1
  tumor volume Day 1: 143.5 mm^3
[5]; Am80 1 mg/kg oral daily, DXL 3.5 mg/kg i.v., Day 5
  tumor volume Day 5: 121.5 mm^3
[5]; Am80 1 mg/kg oral daily, DXL 3.5 mg/kg i.v., Day 9
  tumor volume Day 9: 110.0 mm^3
[5]; Am80 1 mg/kg oral daily, DXL 3.5 mg/kg i.v., Day 13
  tumor volume Day 13: 83.3 mm^3
[5]; Am80 1 mg/kg oral daily, DXL 3.5 mg/kg i.v., Day 17
  tumor volume Day 17: 66.5 mm^3
[5]; Am80 1 mg/kg oral daily, DXL 3.5 mg/kg i.v., Day 22
  tumor volume Day 22: 71.3 mm^3
[6]; Am80 1 mg/kg oral daily 21 days, DXL 5 mg/kg i.v. 3 times at intervals of 4 days, Day 1
  tumor volume Day 1: 126.7 mm^3
[6]; Am80 1 mg/kg oral daily, DXL 5 mg/kg i.v., Day 5
  tumor volume Day 5: 111.3 mm^3
[6]; Am80 1 mg/kg oral daily, DXL 5 mg/kg i.v., Day 9
  tumor volume Day 9: 90.7 mm^3
[6]; Am80 1 mg/kg oral daily, DXL 5 mg/kg i.v., Day 13
  tumor volume Day 13: 73.7 mm^3
[6]; Am80 1 mg/kg oral daily, DXL 5 mg/kg i.v., Day 17
  tumor volume Day 17: 72.5 mm^3
[6]; Am80 1 mg/kg oral daily, DXL 5 mg/kg i.v., Day 22
  tumor volume Day 22: 70.2 mm^3
